Test results published in US8815509B2, “Fluorescence-based assay for the rapid detection and quantification of deoxyribonucleoside triphosphates” (University of Southern California, priority 2011, dated 2014).

Test system: HCT116 human colorectal cancer cells
Test: Intracellular dNTP pools of HCT116 cells after treatment with thymidylate synthase inhibitors, measured with the fluorescence-based dNTP assay
Conditions: for Intracellular dGTP concentration / Intracellular dCTP concentration / Intracellular dATP concentration / Intracellular dTTP concentration: 4 h, Mean ± SD; for Intracellular dGTP concentration: control 4.7 ± 0.8; for Intracellular dCTP concentration: control 10.5 ± 0.2; for Intracellular dATP concentration: control 13.6 ± 1.17; for Intracellular dTTP concentration: control 20.4 ± 0.77; for dGTP after treatment: depletion from 4.7; for dCTP levels after treatment: reduction from 10.5; for dTTP after treatment: vehicle-treated cells 20.4
[1] = HCT116, 2.5 μmol/L pemetrexed, 4 hours

Method: Reaction mixtures contained primer, probe and template at an equimolar final concentration of 0.4 mmol/L. MgCl2 was included at a final concentration of 2 mmol/L. Non-limiting dNTPs were included in the reaction mix in excess at a final concentration of 100 mmol/L (the dNTP to be assayed was excluded). AmpliTaq Gold DNA polymerase was added at 0.875 U/reaction, 2.5 μl of 10×PCR buffer 2 added and nuclease-free ddH2O added to a final reaction volume of 25 μl. For analysis of cell extracts, the volume of ddH20 was modified to accommodate the addition of 2.5 μl of cell extract. For dUTP determination from cell extracts, the volume of ddH20 was further modified to accommodate an additional 1 μl of dUTPase (10 ng/μl). Thermal profiling and fluorescence detection was performed using the ‘isothermal’ program on board an Applied Biosystems 7500 Real-Time PCR System. For analysis of dNTPs, the thermal profile consisted of a 10 min 95° C. step to ‘hot-start’ the Taq polymerase and a primer extension time of up to 30 min at 60° C. depending on the application. Raw fluorescence spectra for 6-FAM was measured using filter A at specified time intervals (typically every 5 min) to follow assay progression using Sequence Detection Software (SDS Version 1.4, Applied Biosystems) and exported and analyzed in Microsoft Excel (Microsoft, Redmond Wash.) and Prism (GraphPad Software, La Jolla Calif.). In all cases, fluorescence values for blank reactions (limiting dNTP omitted) were subtracted to give normalized fluorescence units (NFU) to account for background probe fluorescence.
The human colorectal cancer cell line HCT116 was purchased from American Type Culture Collection (Lockville, Md.). HCT116 cells were maintained in McCoy's 5A media (Invitrogen) supplemented with 10% fetal bovine serum (Lonza, Walkersville, Md.) with penicillin/streptomycin, sodium pyruvate and L-glutamine (Invitrogen, Carlsbad, Calif.). For pemetrexed analyses, cells were incubated in folate-depleted RPMI supplemented with 25 nmol/L 5-Formyltetrahydrofolate, 10% fetal bovine serum (Lonza), penicillin/streptomycin, sodium pyruvate and L-glutamine for 24 h prior to treatment. Cells were maintained in a humidified Form a incubator (Form a, Waltham, Mass.) at 37° C. with 5% CO2 and routinely screened for mycoplasma using the MycoALERT detection kit (Lonza) and verified mycoplasma negative.
The relationship between assay response and known concentrations of the analytes (dNTPs) was analyzed by a 5-point (minimum) calibration curve. Calibration curves were obtained by assaying serial dilutions of dNTP standards diluted with ultra-pure nuclease-free water to the desired concentration and evaluated using regression coefficients (R^2). Samples were assayed in triplicate, and experiments were repeated on three independent occasions as appropriate. The limit of detection (LOD) was defined as the mean value of the negative blind controls plus 3 standard deviations (SD) of the mean, i.e. the concentration with a signal to noise ratio of 3:1. The limit of quantification (LOQ) was defined as the mean value of the negative controls plus 5 SD determined from three independent assays (signal to noise ratio of 5:1). Coefficient of variation (% CV) values were calculated from the cumulative mean and SD of replicates. Inter-assay % CVs were calculated from 3 independent experiments performed on different days. The intra-assay % CV represents the mean±SD % CV obtained from assaying replicate samples within 3 identical yet independent assays performed on the same day. The accuracy was assessed by comparing the nominal dNTP concentrations with the corresponding calculated values based on the calibration curve and presented as a percentage.

## O=c1[nH]c(=O)n([C@H]2C[C@H](O)[C@@H](CO)O2)cc1F [FUdR, fluorodeoxyuridine]
HCT116, 1 μmol/L FUdR
  Intracellular dGTP concentration: 0.43 ± 0.11 pmoles × 10^6 cells
  Intracellular dCTP concentration: 8 ± 0.04 pmoles × 10^6 cells
  Intracellular dATP concentration: 14.5 ± 0.13 pmoles × 10^6 cells
  Intracellular dTTP concentration: 4.5 ± 0.71 pmoles × 10^6 cells
HCT116, 1 μmol/L FUdR, 4 hours
  Depletion of dTTP versus vehicle-treated cells: > 4 fold
  dGTP after treatment: 0.43 pmoles per 10^6 cells
  dCTP levels after treatment: 8 pmoles per 10^6
  dTTP after treatment: 4.5 pmoles per 10^6 cells

## O=c1[nH]cc(F)c(=O)[nH]1 [5-FU, 5-fluorouracil]
HCT116, 5 μmol/L 5-FU
  Intracellular dGTP concentration: 0.88 ± 0.1 pmoles × 10^6 cells
  Intracellular dCTP concentration: 8.7 ± 0.24 pmoles × 10^6 cells
  Intracellular dATP concentration: 13.9 ± 0.33 pmoles × 10^6 cells
  Intracellular dTTP concentration: 1.64 ± 0.16 pmoles × 10^6 cells
HCT116, 5 μmol/L 5-FU, 4 hours
  dGTP after treatment: 0.9 pmoles per 10^6 cells
  dCTP levels after treatment: 8.7 pmoles per 10^6
  dTTP after treatment: 1.6 pmoles per 10^6 cells

## Nc1nc2[nH]cc(CCc3ccc(C(=O)N[C@@H](CCC(=O)O)C(=O)O)cc3)c2c(=O)[nH]1 [PTX, pemetrexed]
HCT116, 2.5 μmol/L PTX
  Intracellular dGTP concentration: 1.14 ± 0.3 pmoles × 10^6 cells
  Intracellular dCTP concentration: 11.1 ± 2.5 pmoles × 10^6 cells
  Intracellular dATP concentration: 13.4 ± 1.68 pmoles × 10^6 cells
  Intracellular dTTP concentration: 3.93 ± 0.8 pmoles × 10^6 cells
[1]
  dGTP after treatment: 1.1 pmoles per 10^6 cells
  dTTP after treatment: 3.9 pmoles per 10^6 cells
